Reference: US20130059324A1, “SYSTEMS AND METHODS FOR MECHANICALLY STRAINED CELL CULTURE” (THE UNIVERSITY OF KANSAS, priority 2010, published 2013)

How the values were obtained:
A549 cells [1] = assay: Drug exposure with or without simulated forces, 6-well Bioflex plates, live cell count and exponential growth model; format: cell-based, human
Protocol: (§1) Treatments 1, 2 and 3 served as unstretched controls for Treatments 4, 5 and 6, respectively. For each cell line and drug, all treatments were independently repeated at least 3 times on different days, with 3 replicates per Treatments 1 and 4 (n=9) and 5 replicates per all other treatments (n=15).
Cells were passaged in 75 cm2 culture flasks at 37° C. in 5% CO2, and trypsinized using TryplE™ Express (Gibco) containing phenol red.
Cells were plated in 6-well Bioflex® plates (Flexcell® International Corporation, Hillsborough, N.C.). Each well of the plate has a flexible elastic membrane coated with a thin layer of type I collagen. Type I collagen was chosen since it more accurately represents the physiology of lung tumor cells in vivo. […] In Treatments 1, 2 and 3, NCI-H358 and A549 cells were plated at a density of 100,000 and 20,000 cells/well in 2 ml of corresponding media, respectively. For treatments involving simulated forces (Treatments 4-6), NCI-H358 and A549 cells were plated at a density of 170,000 and 35,000 cells/well, respectively.
(§2) After allowing the cells to adhere to the membrane for 24 hours, the plates assigned for simulated forces were stretched using the FX-4000 Tension plus unit (Flexcell® International Corporation, Hillsborough, N.C.). The Flexcell unit was configured to deliver an alternating positive and negative pressure beneath the cell culture surfaces. Negative pressure pulls the culture surface down over a stationary Delrin post on the baseplate, delivering a uniform biaxial strain to the cells, and subsequent application of positive pressure releases this distension (FIGS. 9A and 9B.) In this manner, the alternating positive and negative pressure simulates forces experienced during respiration. Culture plates experiencing forces were fitted with rubber gaskets and placed on circular loading stations in the baseplate.
After 72 hours of initial seeding, one of the five drugs was added to Treatments 3 and 6 of each cell line. […] To insure comparability, an aliquot of 1 ml of media without the drug was added to each well in Treatments 2 and 5. After adding the drug or 1 ml of media, the plates from Treatments 5 and 6 were placed back on the baseplate and subjected to the same force profile as before for the remaining 72 hours. Plates from Treatments 2 and 3 (without forces) were placed in the same incubator for the remaining 72 hours.
(§3) Cells were trypsinized and counted at the end of day 3 in Treatments 1 and 4, and at the end of day 6 in the other treatments, using a Beckman Coulter Vi-Cell Analyzer (Beckman Coulter, Fullerton, Calif.). To examine changes in morphology, microphotographs of A549 and NCI-H358 cells were taken at the end of Treatments 1, 2, 4 and 5 using an Olympus inverted microscope and a 10× objective.
The standard exponential cell growth model (28) was used to describe the changes in live cell counts after each treatment. According to this model, the cell count (e.g., N) at a particular time (e.g., t), is given by the equation:
N* is the initial cell count and λ is the cell growth rate. For each cell line, the following cell growth rates were estimated: λ=growth rate in the absence of forces and drugs, λd=growth rate in the presence of a particular drug but no forces, λXf=growth rate in the presence of forces but no drugs; and λfd=growth rate in the presence of forces and a particular drug. The growth rates λd and λfd were estimated for each tested drug. Using these growth rates and the exponential growth model, the final cell counts were mathematically modeled for each treatment under various conditions (FIG. 8). For each cell line, a linear regression model that combined the information from the 5 investigated drugs was built using Stata Statistical Software (StataCorp LP, Texas) after log-transforming the six equations listed in FIG. 8. The regression coefficients in the model were the growth rates.

NCI-H358 cells = assay: as above; format: cell-based, human
Excerpt: as §1
The NCI-H358 (ATCC® CRL-5807) and A549 (ATCC® CCL-185) cell lines were obtained from American Type Culture Collection (ATCC, Manassas, Va.) and cultured in RPMI-1640 (NCI-H358) and HAM's F12K (A549) media containing 10% Fetal Bovine Serum (Sigma Aldrich, St. Louis, Mo.) and 1% Penicillin Streptomycin (Sigma Aldrich). Cells were passaged in 75 cm2 culture flasks at 37° C. in 5% CO2, and trypsinized using TryplE™ Express (Gibco) containing phenol red.
Cells were plated in 6-well Bioflex® plates (Flexcell® International Corporation, Hillsborough, N.C.). Each well of the plate has a flexible elastic membrane coated with a thin layer of type I collagen. Type I collagen was chosen since it more accurately represents the physiology of lung tumor cells in vivo. The Flexcell is not configured for drug studies as described herein, and had to be modified as described herein. […] Therefore, to have the same number of cells in culture at the time of drug exposure, initial seeding densities for treatments not involving simulated forces (Treatments 1-3) and those involving forces (Treatments 4-6) were adjusted for each cell line. In Treatments 1, 2 and 3, NCI-H358 and A549 cells were plated at a density of 100,000 and 20,000 cells/well in 2 ml of corresponding media, respectively. For treatments involving simulated forces (Treatments 4-6), NCI-H358 and A549 cells were plated at a density of 170,000 and 35,000 cells/well, respectively.
as §2, with “baseplate. […] Cells were preconditioned with mechanical forces for 48 hours, in an incubator at 37° C., 5% CO2 and 95% relative humidity.” for “baseplate.”
After 72 hours of initial seeding, one of the five drugs was added to Treatments 3 and 6 of each cell line. […] The IC90, concentration of the drug that inhibits the growth of 90% of the cells in a static monolayer culture, was used to assure a significant inhibition in the absence of simulated forces. To insure comparability, an aliquot of 1 ml of media without the drug was added to each well in Treatments 2 and 5. After adding the drug or 1 ml of media, the plates from Treatments 5 and 6 were placed back on the baseplate and subjected to the same force profile as before for the remaining 72 hours. Plates from Treatments 2 and 3 (without forces) were placed in the same incubator for the remaining 72 hours.
as §3
The standard exponential cell growth model (28) was used to describe the changes in live cell counts after each treatment. […]

H358 cells = assay: Prototype 96-well plate, viable cell count (Vi-Cell) with and without mechanical forces; format: cell-based, human
Protocol: (§4) After allowing the cells to adhere to the flexible membrane of the 96 well plate for 24 hours, the loading pins and the system described in FIG. 7 to implement mechanical strain were used to deliver 20% maximum strain for 2 seconds to the plate assigned for mechanical forces (+M Group), followed by 2 seconds of rest (15 cycles per minute with an average strain of 10% per cycle) in keeping with a normal human respiration.
In a parallel experiments, the cells were treated with anti-tumor drug after 72 hours of initial seeding (after 48 hours of mechanical stretching). The drug was dissolved in dimethyl sulfoxide (DMSO) at stock concentration and added to the respective media. An aliquot of 50 μl of drug stock solution was added to the well containing 100 μl of media (a 1:3 dilution) in a drug plate to get the desired IC90 concentration of the drug (Table 1). The IC90 concentrations of the drugs were then added to prototype plate.
(§5) The +M Group was subjected to continuous mechanical stretching while the −M Group plate was placed in the same incubator for additional 24 hours.
In order to quantify viability, 6 wells per treatment group for ViCell counter and 6 wells per condition for MTS were assigned to determine the cell viability. Using Vi-Cell counter, assigned wells were filled with extra 210 μl of media to keep the volume constant in all the wells.

A549 cells [2] = tested on: A549 cells
Protocol: as §4
In a parallel experiments, the cells were treated with anti-tumor drug after 72 hours of initial seeding (after 48 hours of mechanical stretching). The drug was dissolved in dimethyl sulfoxide (DMSO) at stock concentration and added to the respective media. […] The IC90 concentrations of the drugs were then added to prototype plate.
as §5
In order to quantify viability, 6 wells per treatment group for ViCell counter and 6 wells per condition for MTS were assigned to determine the cell viability. Using Vi-Cell counter, assigned wells were filled with extra 210 μl of media to keep the volume constant in all the wells. Media from the assigned wells were transferred into a 24-well plate, and the well location was recorded. About 50 μl of trypLE was added to each well and allowed to trypsinize for a maximum of ten minutes. A small amount of media from the 24-well plate was transferred back into corresponding wells of the prototype plate to collect detached cells.
Media and cells were transferred back into the corresponding well of the 24-well plate. All wells were brought to a final volume of 1.25 mL with PBS and mixed well. About 1 ml of this cell suspension was transferred to ViCell counter to determine the number of viable cells.

[3] = drug at IC90 for 3 days, 20% maximum strain, 15 cycles/minute
[4] = percentage reduction in live cell counts, 3-day drug exposure at IC90, no forces
[5] = percentage reduction in live cell counts, 3-day drug exposure at IC90, simulated forces

## CC(=O)O[C@H]1C(=O)[C@@]2(C)[C@H]([C@H](OC(=O)c3ccccc3)[C@]3(O)C[C@H](OC(=O)[C@H](O)[C@@H](NC(=O)c4ccccc4)c4ccccc4)C(C)=C1C3(C)C)[C@]1(OC(C)=O)CO[C@@H]1C[C@@H]2O [Paclitaxel]
A549 cells [1]; [3]
  Growth Rates, With forces: −0.038 per day
A549 cells [1]; drug at IC90 for 3 days, no forces, negative = reduction in viable cell count
  Growth Rates, Without forces: 0.133 per day
A549 cells [1]; [4]
  Effectiveness of The Drug, Without forces (E): 76.9%
A549 cells [1]; [5]
  Effectiveness of The Drug, With forces (Ef): 57.5%
NCI-H358 cells; [3]
  Growth Rates, With forces: −0.276 per day
NCI-H358 cells; drug at IC90 for 3 days, no forces
  Growth Rates, Without forces: −0.005 per day
NCI-H358 cells; [4]
  Effectiveness of The Drug, Without forces (E): 70.5%
NCI-H358 cells; [5]
  Effectiveness of The Drug, With forces (Ef): 66.8%
H358 cells; 24 hours drug exposure, prototype 96-well plate
  Effect of mechanical forces on viable cell count / cytotoxicity: remained unaffected
H358 cells; drug at IC90, 24 hours, mechanical forces
  Viable Cell Count after 24 hours of drug exposure, With forces (Ef): 9687.5
H358 cells; drug at IC90, 24 hours, no forces
  Viable Cell Count after 24 hours of drug exposure, Without forces (E): 21250.0
A549 cells [2]
  Effect of mechanical forces on viable cell count / cytotoxicity: Statistically significant reduction
